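A five-concentration, 48-hour dose response in 96-well plates underlies each endpoint, interpolated linearly between surrounding concentrations. The concentration for 50% growth inhibition is given as GI50. TGI: total growth inhibition.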
Legend:
Assay in all cases: DTP human tumour cell line panel, 48 h
UACC-257 melanoma = system: UACC-257 melanoma
DMS 114 small cell lung = system: DMS 114 small cell lung
A498 renal = system: A498 renal
786-0 renal = system: 786-0 renal
COLO 205 colon = system: COLO 205 colon
MOLT-4 leukemia = system: MOLT-4 leukemia
U251 CNS = system: U251 CNS
OVCAR-3 ovarian = system: OVCAR-3 ovarian
SR leukemia = system: SR leukemia
SF-295 CNS = system: SF-295 CNS
RXF 393 renal = system: RXF 393 renal
ACHN renal = system: ACHN renal
NCI-H226 lung = system: NCI-H226 lung
HT29 colon = system: HT29 colon
SNB-75 CNS = system: SNB-75 CNS
NCI-H522 lung = system: NCI-H522 lung
OVCAR-4 ovarian = system: OVCAR-4 ovarian
HOP-62 NSCLC = system: HOP-62 NSCLC
RPMI-8226 leukemia = system: RPMI-8226 leukemia
NCI-H23 lung = system: NCI-H23 lung
HL-60(TB) leukemia = system: HL-60(TB) leukemia
SK-MEL-28 melanoma = system: SK-MEL-28 melanoma
UO-31 renal = system: UO-31 renal
MALME-3M melanoma = system: MALME-3M melanoma
EKVX NSCLC = system: EKVX NSCLC
HCT-116 colon = system: HCT-116 colon
SK-MEL-2 melanoma = system: SK-MEL-2 melanoma
HCT-15 colon = system: HCT-15 colon
IGROV1 ovarian = system: IGROV1 ovarian
XF 498 CNS = system: XF 498 CNS
SNB-19 CNS = system: SNB-19 CNS
KM20L2 colon = system: KM20L2 colon
SW-620 colon = system: SW-620 colon
HOP-92 NSCLC = system: HOP-92 NSCLC
LXFL 529 NSCLC = system: LXFL 529 NSCLC
M14 melanoma = system: M14 melanoma
SF-539 CNS = system: SF-539 CNS
HOP-18 NSCLC = system: HOP-18 NSCLC
CCRF-CEM leukemia = system: CCRF-CEM leukemia
SK-OV-3 ovarian = system: SK-OV-3 ovarian
SF-268 CNS = system: SF-268 CNS
A549 NSCLC = system: A549 NSCLC
DMS 273 small cell lung = system: DMS 273 small cell lung
UACC-62 melanoma = system: UACC-62 melanoma
SNB-78 CNS = system: SNB-78 CNS
HCC-2998 colon = system: HCC-2998 colon
OVCAR-8 ovarian = system: OVCAR-8 ovarian
SN12C renal = system: SN12C renal
K-562 leukemia = system: K-562 leukemia
M19-MEL melanoma = system: M19-MEL melanoma
DLD-1 colon = system: DLD-1 colon
KM12 colon = system: KM12 colon
SK-MEL-5 melanoma = system: SK-MEL-5 melanoma
TK-10 renal = system: TK-10 renal
NCI-H460 lung = system: NCI-H460 lung
CAKI-1 renal = system: CAKI-1 renal
LOX IMVI melanoma = system: LOX IMVI melanoma
OVCAR-5 ovarian = system: OVCAR-5 ovarian
RXF-631 renal = system: RXF-631 renal

In the case of `CCOC(=O)N(c1ccccc1)N(CC)C(=O)/C(C)=N/Nc1ccc([N+](=O)[O-])cc1`, the TGI (UACC-257 melanoma) is reported as 29.3 µM, the TGI (DMS 114 small cell lung) is reported as 43.5 µM and the TGI (A498 renal) is reported as 28 µM. The TGI (786-0 renal) was 33.4 µM, the TGI (COLO 205 colon) was 33.5 µM and the TGI (MOLT-4 leukemia) was 52.6 µM. The TGI (U251 CNS) was 28.2 µM, the TGI (OVCAR-3 ovarian) was 31.1 µM and the TGI (SR leukemia) was 69.3 µM. The TGI (SF-295 CNS) was 32.3 µM, the TGI (RXF 393 renal) was 26.2 µM and the TGI (ACHN renal) was 40.9 µM. It also gave a TGI (NCI-H226 lung) of 37.5 µM, a TGI (HT29 colon) of 31 µM and a TGI (SNB-75 CNS) of 35.2 µM. The TGI (NCI-H522 lung) was 29.3 µM, the TGI (OVCAR-4 ovarian) was 42.2 µM and the TGI (HOP-62 NSCLC) was 30 µM. The TGI (RPMI-8226 leukemia) was 58 µM, the TGI (NCI-H23 lung) was 36.1 µM and the TGI (HL-60(TB) leukemia) was 35.8 µM. The TGI (SK-MEL-28 melanoma) was 31.1 µM, the TGI (UO-31 renal) was 29.5 µM and the TGI (MALME-3M melanoma) was 33.5 µM. It also gave a TGI (EKVX NSCLC) of 39.8 µM, a TGI (HCT-116 colon) of 27.1 µM and a TGI (SK-MEL-2 melanoma) of 30 µM. For the same molecule, the TGI (HCT-15 colon) was 30.3 µM, the TGI (IGROV1 ovarian) was 33 µM and the TGI (XF 498 CNS) was 33.4 µM. It also gave a TGI (SNB-19 CNS) of 34.9 µM, a TGI (KM20L2 colon) of 31.3 µM and a TGI (SW-620 colon) of 36.7 µM. The TGI (HOP-92 NSCLC) was 30.3 µM, the TGI (LXFL 529 NSCLC) was 34.6 µM and the TGI (M14 melanoma) was 31.7 µM. It also gave a TGI (SF-539 CNS) of 30 µM, a TGI (HOP-18 NSCLC) of 36.9 µM and a TGI (CCRF-CEM leukemia) of 42 µM. For the same molecule, the TGI (SK-OV-3 ovarian) was 37.1 µM, the TGI (SF-268 CNS) was 34.1 µM and the TGI (A549 NSCLC) was 33.9 µM. It also gave a TGI (DMS 273 small cell lung) of 30 µM, a TGI (UACC-62 melanoma) of 26.8 µM and a TGI (SNB-78 CNS) of 58.9 µM. For the same molecule, the TGI (HCC-2998 colon) was 32.5 µM, the TGI (OVCAR-8 ovarian) was 32.6 µM and the TGI (SN12C renal) was 31.4 µM. The TGI (K-562 leukemia) was 38.1 µM, the TGI (M19-MEL melanoma) was 31.2 µM and the TGI (DLD-1 colon) was 30.7 µM. For the same molecule, the TGI (KM12 colon) was 29.2 µM.

`CCCCCCC[CH2][Sn]1([CH2]CCCCCCC)[O]C(=O)c2cccnc2[O]1` showed a GI50 (UACC-257 melanoma) greater than 100 µM, a TGI (UACC-257 melanoma) greater than 100 µM and a GI50 (DMS 114 small cell lung) greater than 100 µM. The TGI (DMS 114 small cell lung) was greater than 100 µM, the GI50 (A498 renal) was greater than 100 µM and the TGI (A498 renal) was greater than 100 µM. It also gave a GI50 (SK-MEL-5 melanoma) greater than 100 µM, a TGI (SK-MEL-5 melanoma) greater than 100 µM and a GI50 (786-0 renal) greater than 100 µM. It also gave a TGI (786-0 renal) greater than 100 µM, a GI50 (COLO 205 colon) greater than 100 µM and a TGI (COLO 205 colon) greater than 100 µM. The GI50 (MOLT-4 leukemia) was greater than 100 µM, the TGI (MOLT-4 leukemia) was greater than 100 µM and the GI50 (U251 CNS) was greater than 100 µM. It also gave a TGI (U251 CNS) greater than 100 µM, a GI50 (OVCAR-3 ovarian) greater than 100 µM and a TGI (OVCAR-3 ovarian) greater than 100 µM. For the same molecule, the GI50 (SR leukemia) was greater than 100 µM, the TGI (SR leukemia) was greater than 100 µM and the GI50 (TK-10 renal) was greater than 100 µM. For the same molecule, the TGI (TK-10 renal) was greater than 100 µM, the GI50 (SF-295 CNS) was greater than 100 µM and the TGI (SF-295 CNS) was greater than 100 µM. The GI50 (RXF 393 renal) was greater than 100 µM, the TGI (RXF 393 renal) was greater than 100 µM and the GI50 (ACHN renal) was greater than 100 µM. The TGI (ACHN renal) was greater than 100 µM, the GI50 (NCI-H226 lung) was greater than 100 µM and the TGI (NCI-H226 lung) was greater than 100 µM. It also gave a GI50 (HT29 colon) greater than 100 µM, a TGI (HT29 colon) greater than 100 µM and a GI50 (SNB-75 CNS) greater than 100 µM. It also gave a TGI (SNB-75 CNS) greater than 100 µM, a GI50 (NCI-H522 lung) greater than 100 µM and a TGI (NCI-H522 lung) greater than 100 µM. For the same molecule, the GI50 (NCI-H460 lung) was greater than 100 µM, the TGI (NCI-H460 lung) was greater than 100 µM and the GI50 (OVCAR-4 ovarian) was greater than 100 µM. It also gave a TGI (OVCAR-4 ovarian) greater than 100 µM, a GI50 (RPMI-8226 leukemia) greater than 100 µM and a TGI (RPMI-8226 leukemia) greater than 100 µM. The GI50 (NCI-H23 lung) was greater than 100 µM, the TGI (NCI-H23 lung) was greater than 100 µM and the GI50 (HL-60(TB) leukemia) was greater than 100 µM. The TGI (HL-60(TB) leukemia) was greater than 100 µM, the GI50 (CAKI-1 renal) was greater than 100 µM and the TGI (CAKI-1 renal) was greater than 100 µM. It also gave a GI50 (SK-MEL-28 melanoma) greater than 100 µM, a TGI (SK-MEL-28 melanoma) greater than 100 µM and a GI50 (UO-31 renal) greater than 100 µM. The TGI (UO-31 renal) was greater than 100 µM, the GI50 (MALME-3M melanoma) was greater than 100 µM and the TGI (MALME-3M melanoma) was greater than 100 µM. The GI50 (EKVX NSCLC) was greater than 100 µM, the TGI (EKVX NSCLC) was greater than 100 µM and the GI50 (HCT-116 colon) was greater than 100 µM. The TGI (HCT-116 colon) was greater than 100 µM, the GI50 (SK-MEL-2 melanoma) was greater than 100 µM and the TGI (SK-MEL-2 melanoma) was greater than 100 µM. The GI50 (LOX IMVI melanoma) was greater than 100 µM, the TGI (LOX IMVI melanoma) was greater than 100 µM and the GI50 (HCT-15 colon) was greater than 100 µM. For the same molecule, the TGI (HCT-15 colon) was greater than 100 µM, the GI50 (IGROV1 ovarian) was greater than 100 µM and the TGI (IGROV1 ovarian) was greater than 100 µM. The GI50 (XF 498 CNS) was 42.3 µM, the TGI (XF 498 CNS) was greater than 100 µM and the GI50 (SNB-19 CNS) was greater than 100 µM. It also gave a TGI (SNB-19 CNS) greater than 100 µM, a GI50 (KM20L2 colon) greater than 100 µM and a TGI (KM20L2 colon) greater than 100 µM. It also gave a GI50 (SW-620 colon) greater than 100 µM, a TGI (SW-620 colon) greater than 100 µM and a GI50 (OVCAR-5 ovarian) greater than 100 µM. It also gave a TGI (OVCAR-5 ovarian) greater than 100 µM, a GI50 (HOP-92 NSCLC) greater than 100 µM and a TGI (HOP-92 NSCLC) greater than 100 µM. It also gave a GI50 (LXFL 529 NSCLC) greater than 100 µM, a TGI (LXFL 529 NSCLC) greater than 100 µM and a GI50 (RXF-631 renal) greater than 100 µM. For the same molecule, the TGI (RXF-631 renal) was greater than 100 µM, the GI50 (M14 melanoma) was greater than 100 µM and the TGI (M14 melanoma) was greater than 100 µM. For the same molecule, the GI50 (SF-539 CNS) was greater than 100 µM, the TGI (SF-539 CNS) was greater than 100 µM and the GI50 (CCRF-CEM leukemia) was greater than 100 µM. The TGI (CCRF-CEM leukemia) was greater than 100 µM, the GI50 (SK-OV-3 ovarian) was greater than 100 µM and the TGI (SK-OV-3 ovarian) was greater than 100 µM. It also gave a GI50 (A549 NSCLC) greater than 100 µM, a TGI (A549 NSCLC) greater than 100 µM and a GI50 (DMS 273 small cell lung) greater than 100 µM. The TGI (DMS 273 small cell lung) was greater than 100 µM, the GI50 (UACC-62 melanoma) was greater than 100 µM and the TGI (UACC-62 melanoma) was greater than 100 µM. The GI50 (SNB-78 CNS) was greater than 100 µM, the TGI (SNB-78 CNS) was greater than 100 µM and the GI50 (HCC-2998 colon) was greater than 100 µM. It also gave a TGI (HCC-2998 colon) greater than 100 µM, a GI50 (OVCAR-8 ovarian) greater than 100 µM and a TGI (OVCAR-8 ovarian) greater than 100 µM. The GI50 (SN12C renal) was greater than 100 µM, the TGI (SN12C renal) was greater than 100 µM and the GI50 (K-562 leukemia) was greater than 100 µM. It also gave a TGI (K-562 leukemia) greater than 100 µM, a GI50 (M19-MEL melanoma) greater than 100 µM and a TGI (M19-MEL melanoma) greater than 100 µM. For the same molecule, the GI50 (DLD-1 colon) was greater than 100 µM, the TGI (DLD-1 colon) was greater than 100 µM and the GI50 (KM12 colon) was greater than 100 µM. The TGI (KM12 colon) was greater than 100 µM.

Reference: PubChem BioAssay (NCI)
